One may read the MIC as the lowest concentration that inhibits growth of the organism. Read a high MIC as a less susceptible organism.

Common to all, as to type: functional
The subject of assay [1] is Staphylococcus aureus. Put plainly: Minimum inhibitory concentration against 819 Staphylococcus aureus Smith MSSA.
The subject of assay [2] is Staphylococcus epidermidis. Put plainly: Minimum inhibitory concentration against 147 Staphylococcus epidermidis ATCC 12228.
Assay [3] has as its system Enterococcus faecium. Put plainly: Minimum inhibitory concentration against 568 Enterococcus faecium (isogenic of L569).
The test system of assay [4] is Staphylococcus aureus. Put plainly: Minimum inhibitory concentration against 3797 Staphylococcus aureus Clin. isolate VISA.
In assay [5] the test system is Staphylococcus aureus. The assay is described as follows: Minimum inhibitory concentration against 3798 Staphylococcus aureus Clin. isolate VISA.
For assay [6], the system named is Staphylococcus aureus. Put plainly: Minimum inhibitory concentration against 613 Staphylococcus aureus Clin. isolate Met-R.
The test system of assay [7] is Staphylococcus aureus. The assay is described as follows: Minimum inhibitory concentration against 1400 Staphylococcus aureus Clin. isolate Met-R.
Assay [8] relates to Streptococcus pyogenes. The assay is described as follows: Minimum inhibitory concentration against 49 Streptococcus pyogenes C203.
Assay [9] concerns Enterococcus faecium. The assay is described as follows: Minimum inhibitory concentration against 569 Enterococcus faecium clin. isolate Van-A.
The test system of assay [10] is Enterococcus faecium. Put plainly: Minimum inhibitory concentration against 2215 Enterococcus faecium clin. isolate Van-A.
The subject of assay [11] is Enterococcus faecalis. The assay is described as follows: Minimum inhibitory concentration against 559 Enterococcus faecalis (isogenic of L 560).
The test system of assay [12] is Enterococcus faecalis. The assay is described as follows: Minimum inhibitory concentration against 2981 Enterococcus faecalis clin. Isolate Van-A.
Assay [13] has as its system Enterococcus faecalis. Put plainly: Minimum inhibitory concentration against 1139 Enterococcus faecalis teico-vanco-sensitive.
The subject of assay [14] is Enterococcus faecalis. The assay is described as follows: Minimum inhibitory concentration against 559 Enterococcus faecalis Van-A.

Structures are written as SMILES. Converted amounts (≈) assume the structure as drawn.

As to `CC(=O)N[C@@H]1[C@H](Oc2c3cc4cc2Oc2ccc(cc2Cl)[C@@H](O[C@@H]2O[C@@H](CO)[C@@H](O)[C@H](O)[C@@H]2NC(C)=O)[C@@H]2NC(=O)[C@H](NC(=O)[C@@H]4NC(=O)[C@H]4NC(=O)[C@@H](Cc5ccc(c(Cl)c5)O3)NC(=O)[C@H](N)c3ccc(O)c(c3)Oc3cc(O)cc4c3)c3ccc(O)c(c3)-c3c(O[C@H]4O[C@H](CO)[C@@H](O)[C@@H](O)[C@@H]4O)cc(O)cc3[C@@H](C(=O)O)NC2=O)O[C@@H](CO)[C@@H](O)[C@@H]1O`, the MIC in [1] was 1 µg/mL (≈ 0.566 µM); in [2] it was 2 µg/mL (≈ 1.13 µM); in [3], at most 0.125 µg/mL; in assay [4], 16 µg/mL (≈ 9.05 µM); in assay [5], 4 µg/mL (≈ 2.26 µM); in assay [6], 1 µg/mL (≈ 0.566 µM). For the same molecule, the MIC in assay [7] is 1 µg/mL (≈ 0.566 µM); in assay [8], at most 0.125 µg/mL.
In the case of `CCCCCCCCCCCC(=O)NC1C(Oc2cc3cc(c2OC)Oc2ccc(cc2[N+](=O)[O-])C[C@@H](NC(=O)[C@H](N)CC(C)C)C(=O)N[C@@H](Cc2ccccc2)C(=O)N[C@H]3[C@@H](O)C(=O)NCCCC(=O)N[C@@H](C(=O)NCCCN(C)C)c2ccccc2)OC(CO)C(O)C1O.O=C(O)C(F)(F)F` (stereo partly specified), the MIC came out at 16 µg/mL in assay [2]; 16 µg/mL in assay [3]; 8 µg/mL in [9]; 32 µg/mL in assay [10]; 32 µg/mL in assay [4]; 16 µg/mL in [5]. The MIC amounted to 16 µg/mL in assay [11]; 32 µg/mL in assay [6]; 32 µg/mL in assay [12]; 32 µg/mL in [13]; 8 µg/mL in assay [8]; 8 µg/mL in assay [14].
For the molecule `CCCCCCCCCCCC(=O)NC1C(Oc2c(Oc3ccc([N+](=O)[O-])cc3)cc3cc2Oc2ccc(cc2[N+](=O)[O-])C[C@@H](NC(=O)[C@H](N)CC(C)C)C(=O)N[C@@H](Cc2ccccc2)C(=O)N[C@H]3[C@H](O)C(=O)O)OC(CO)C(O)C1O.O=C(O)C(F)(F)F` (stereo partly specified), the MIC in assay [3] turned out to be 64 µg/mL; in [9], 32 µg/mL; in [4], 32 µg/mL; in assay [11] it was 8 µg/mL; in [13] it was 32 µg/mL; in assay [8], 32 µg/mL. In [14], this molecule returned an MIC of 8 µg/mL.
As to `CC(C)C[C@@H](N)C(=O)N[C@@H]1Cc2ccc(c([N+](=O)[O-])c2)Oc2cc(cc(Oc3ccc([N+](=O)[O-])cc3)c2O)[C@H]([C@@H](O)C(=O)O)NC(=O)[C@H](Cc2ccccc2)NC1=O.Cl`, the MIC in [4], in assay [11], in assay [8] and in assay [14] was 64 µg/mL throughout.
`COc1c(Oc2ccc([N+](=O)[O-])cc2)cc2cc1Oc1ccc(cc1[N+](=O)[O-])C[C@@H](NC(=O)[C@H](N)CC(C)C)C(=O)N[C@@H](Cc1ccccc1)C(=O)N[C@H]2[C@@H](O)C(=O)O.Cl`: the MIC in assay [4] stood at 16 µg/mL; in assay [11], 16 µg/mL; in assay [13], 64 µg/mL; in [8], 16 µg/mL; in assay [14], 16 µg/mL.
Take `CCCCCCCCCCCC(=O)NC1C(Oc2cc3cc(c2OC)Oc2ccc(cc2[N+](=O)[O-])C[C@@H](NC(=O)[C@H](N)CC(C)C)C(=O)N[C@@H](Cc2ccccc2)C(=O)N[C@H]3[C@H](O)C(=O)O)OC(CO)C(O)C1O.Cl` (stereo partly specified): the MIC in assay [8] was found to be 32 µg/mL.
Regarding `CCCCCCCCCCCC(=O)NC1C(Oc2cc3cc(c2OC)Oc2ccc(cc2[N+](=O)[O-])C[C@@H](NC(=O)[C@H](N)CC(C)C)C(=O)N[C@@H](Cc2ccccc2)C(=O)N[C@H]3[C@@H](O)C(=O)O)OC(CO)C(O)C1O.Cl` (stereo partly specified), the MIC in [2] came to 64 µg/mL; in [3], 64 µg/mL; in assay [9], 32 µg/mL; in assay [10] it was 32 µg/mL; in assay [11] it was 8 µg/mL; in assay [12], 32 µg/mL. Moreover, the MIC in [13] was 32 µg/mL; in assay [8], 32 µg/mL; in assay [14], 8 µg/mL.
With `CN[C@H](CC(C)C)C(=O)N[C@H]1C(=O)N[C@@H](CC(N)=O)C(=O)N[C@H]2C(=O)N[C@H]3C(=O)N[C@H](C(=O)N[C@H](C(=O)O)c4cc(O)cc(O)c4-c4cc3ccc4O)[C@H](O)c3ccc(c(Cl)c3)Oc3cc2cc(c3O[C@@H]2O[C@H](CO)[C@@H](O)[C@H](O)[C@H]2O[C@H]2C[C@](C)(N)[C@H](O)[C@H](C)O2)Oc2ccc(cc2Cl)[C@H]1O` [VANCOMYCIN], the MIC in assay [1] came out at 1 µg/mL (≈ 0.69 µM); in assay [2] it was 1 µg/mL (≈ 0.69 µM); in assay [3] it was 2 µg/mL (≈ 1.38 µM); in assay [4], 8 µg/mL (≈ 5.52 µM); in assay [5], 8 µg/mL (≈ 5.52 µM); in [11], 1 µg/mL (≈ 0.69 µM). For the same molecule, the MIC in assay [6] is 1 µg/mL (≈ 0.69 µM); in [7], 1 µg/mL (≈ 0.69 µM); in assay [13], 2 µg/mL (≈ 1.38 µM); in assay [8] it was at most 0.125 µg/mL.

Values taken from ChEMBL document CHEMBL1143447, “Identification of synthetic compounds active against VRE: the role of the lipidated aminoglucose and the structure of glycopeptide binding pocket” (2005).
